The values below come from patent US12378224B2 (Dong-A Socio Holdings Co., Ltd., priority 2016, dated 2025).

As a reminder, the pIC50 is −log10 of the IC50, conventionally taken in molar units. The low end stands for a high IC50, the high end for a low IC50.

pIC50: −log10 of the molar value. Bounds are passed on as bounds.

The target of the assay is human MER (528-end) (Homo sapiens (Human), UniProt Q12866). As to the kind of experiment: HTRF Kinase Activity Biochemical Assay (KinEASE-TK). The note with it: 10 uM ATP. In short, it runs like this: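 Recombinant human MER (528-end) phosphorylated biotin-TK peptide substrate, 1 h at room temperature. Reaction stopped with detection buffer containing 0.375 nM Eu3+-cryptate anti-TK antibody and 0.062 uM streptavidin-XL665, 1 h further. Activity taken as HTRF ratio 665/620 nm ×10,000, 340 nm excitation.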
human MER (528-end), sequence (Q12866 528-999 limits assumed): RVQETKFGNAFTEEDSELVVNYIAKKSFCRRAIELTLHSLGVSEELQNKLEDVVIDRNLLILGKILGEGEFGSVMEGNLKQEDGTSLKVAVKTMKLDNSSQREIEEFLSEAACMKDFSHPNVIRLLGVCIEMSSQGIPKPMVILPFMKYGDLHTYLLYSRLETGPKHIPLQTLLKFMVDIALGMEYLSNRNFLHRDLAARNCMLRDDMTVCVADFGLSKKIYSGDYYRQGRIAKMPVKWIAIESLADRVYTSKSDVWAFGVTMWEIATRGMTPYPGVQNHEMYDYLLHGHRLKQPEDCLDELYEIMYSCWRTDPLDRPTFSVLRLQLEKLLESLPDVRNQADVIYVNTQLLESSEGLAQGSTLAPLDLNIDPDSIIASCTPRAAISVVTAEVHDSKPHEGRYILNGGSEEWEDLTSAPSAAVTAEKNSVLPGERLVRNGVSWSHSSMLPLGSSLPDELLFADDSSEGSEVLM
Consider `Cn1cc(-c2cnc(N)c(C(=O)N[C@@H]3CCN(C(=O)c4cccc(-c5cccc(CN6CCOCC6)c5)c4)C3)c2)cn1` [Example 461, (R)-2-amino-5-(1-methyl-1H-pyrazol-4-yl)-N-(1-(3′-(morpholinomethyl)-[1,1′-biphenyl]-3-carbonyl)pyrrolidin-3-yl)nicotinamide], for which the pIC50 was under 6.00.
The value for `Cn1cc(-c2cnc(N)c(C(=O)N[C@@H]3CCN(C(=O)c4ccc(-c5ccccc5)cc4)C3)c2)cn1` [Example 343, (R)—N-(1-([1,1′-biphenyl]-4-carbonyl)pyrrolidin-3-yl)-2-amino-5-(1-methyl-1H-pyrazol-4-yl)nicotinamide] was 7.00 to 8.00; that for `Nc1ncc(-c2cnn(C3CCNCC3)c2)cc1C(=O)N[C@@H]1CCN(Cc2ccc(F)c(F)c2)C1` [Example 160, (R)-2-amino-N-(1-(3,4-difluorobenzyl)pyrrolidin-3-yl)-5-(1-(piperidin-4-yl)-1H-pyrazol-4-yl)nicotinamide] was under 6.00.
`Cn1cc(-c2cnc(N)c(C(=O)N[C@@H]3CCN(Cc4ccc(F)c(Br)c4)C3)c2)cn1` [Example 233, (R)-2-amino-N-(1-(3-bromo-4-fluorobenzyl)pyrrolidin-3-yl)-5-(1-methyl-1H-pyrazol-4-yl)nicotinamide] had a negative-log IC50 (pIC50) of under 6.00.
`COC(=O)/C=C/c1ccc(C(=O)N2CC[C@@H](NC(=O)c3cc(-c4cnn(C)c4)cnc3N)C2)cc1` [Example 828, methyl (R,E)-3-(4-(3-(2-amino-5-(1-methyl-1H-pyrazol-4-yl)nicotinamido)pyrrolidine-1-carbonyl)phenyl)acrylate] gave a pIC50 of under 6.00.
The result for `Cn1cc(-c2cnc(N)c(C(=O)N[C@@H]3CCN(C(=O)Nc4cccc(-c5ccc(CN)cc5)c4)C3)c2)cn1` [Example 255, (R)-2-amino-N-(1-((4′-(aminomethyl)-[1,1′-biphenyl]-3-yl)carbamoyl)pyrrolidin-3-yl)-5-(1-methyl-1H-pyrazol-4-yl)nicotinamide] reads 6.00 to 7.00; that for `Cn1cc(-c2cnc(N)c(C(=O)N[C@@H]3CCN(C(=O)Oc4cccc(-c5ccc(CN6CCCNCC6)cc5)c4)C3)c2)cn1` [Example 323, 4′-((1,4-diazepan-1-yl)methyl)-[1,1′-biphenyl]-3-yl (R)-3-(2-amino-5-(1-methyl-1H-pyrazol-4-yl)nicotinamido)pyrrolidine-1-carboxylate], 6.00 to 7.00; that for `Cn1cc(-c2cnc(N)c(C(=O)N[C@@H]3CCN(C(=O)c4cc5cc(Cl)ccc5o4)C3)c2)cn1` [Example 403, (R)-2-amino-N-(1-(5-chlorobenzofuran-2-carbonyl)pyrrolidin-3-yl)-5-(1-methyl-1H-pyrazol-4-yl)nicotinamide], under 6.00.
The result for `CN1CCN(CCc2ccc(-c3cccc(C(=O)N4CC[C@@H](NC(=O)c5cc(-c6cnn(C)c6)cnc5N)C4)c3)cc2)CC1` [Example 455, (R)-2-amino-5-(1-methyl-1H-pyrazol-4-yl)-N-(1-(4′-(2-(4-methylpiperazin-1-yl)ethyl)-[1,1′-biphenyl]-3-carbonyl)pyrrolidin-3-yl)nicotinamide] reads under 6.00.
The value for `CN1CCN(Cc2ccc(-c3ccc(/C=C/C(=O)N4CC[C@@H](NC(=O)c5cc(-c6cnn(C)c6)cnc5N)C4)cc3)cc2)CC1` [Example 432, (R,E)-2-amino-5-(1-methyl-1H-pyrazol-4-yl)-N-(1-(3-(4′-((4-methylpiperazin-1-yl)methyl)-[1,1′-biphenyl]-4-yl)acryloyl)pyrrolidin-3-yl)nicotinamide] was under 6.00; that for `Cn1cc(-c2cnc(N)c(C(=O)NC[C@@H]3CCN(C(=O)c4ccc(-c5ccccc5)cc4)C3)c2)cn1` [Example 738, (S)—N-((1-([1,1′-biphenyl]-4-carbonyl)pyrrolidin-3-yl)methyl)-2-amino-5-(1-methyl-1H-pyrazol-4-yl)nicotinamide] was under 6.00.
